Measured values: US10787450B2 (BRISTOL-MYERS SQUIBB COMPANY, priority 2016, dated 2020)

Target: ROCK2 (Homo sapiens (Human), UniProt O75116)
Assay: ROCK2 kinase inhibition assay (FITC peptide substrate, LABCHIP 3000 Reader)
Assay type: biochemical
Conditions: 5 μM ATP, 1.5 μM peptide substrate
In short: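 IC50 derived by curve fitting of dose-response inhibition, read as separation of phosphorylated from unphosphorylated FITC peptide (1.5 μM) after EDTA stop. Buffer: HEPES pH 7.5, MgCl2, Brij-35, DTT; ATP 5 μM; final DMSO <2%; reaction initiated by Rho kinase addition.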

Sequence of ROCK2 (O75116 whole entry, species assumed): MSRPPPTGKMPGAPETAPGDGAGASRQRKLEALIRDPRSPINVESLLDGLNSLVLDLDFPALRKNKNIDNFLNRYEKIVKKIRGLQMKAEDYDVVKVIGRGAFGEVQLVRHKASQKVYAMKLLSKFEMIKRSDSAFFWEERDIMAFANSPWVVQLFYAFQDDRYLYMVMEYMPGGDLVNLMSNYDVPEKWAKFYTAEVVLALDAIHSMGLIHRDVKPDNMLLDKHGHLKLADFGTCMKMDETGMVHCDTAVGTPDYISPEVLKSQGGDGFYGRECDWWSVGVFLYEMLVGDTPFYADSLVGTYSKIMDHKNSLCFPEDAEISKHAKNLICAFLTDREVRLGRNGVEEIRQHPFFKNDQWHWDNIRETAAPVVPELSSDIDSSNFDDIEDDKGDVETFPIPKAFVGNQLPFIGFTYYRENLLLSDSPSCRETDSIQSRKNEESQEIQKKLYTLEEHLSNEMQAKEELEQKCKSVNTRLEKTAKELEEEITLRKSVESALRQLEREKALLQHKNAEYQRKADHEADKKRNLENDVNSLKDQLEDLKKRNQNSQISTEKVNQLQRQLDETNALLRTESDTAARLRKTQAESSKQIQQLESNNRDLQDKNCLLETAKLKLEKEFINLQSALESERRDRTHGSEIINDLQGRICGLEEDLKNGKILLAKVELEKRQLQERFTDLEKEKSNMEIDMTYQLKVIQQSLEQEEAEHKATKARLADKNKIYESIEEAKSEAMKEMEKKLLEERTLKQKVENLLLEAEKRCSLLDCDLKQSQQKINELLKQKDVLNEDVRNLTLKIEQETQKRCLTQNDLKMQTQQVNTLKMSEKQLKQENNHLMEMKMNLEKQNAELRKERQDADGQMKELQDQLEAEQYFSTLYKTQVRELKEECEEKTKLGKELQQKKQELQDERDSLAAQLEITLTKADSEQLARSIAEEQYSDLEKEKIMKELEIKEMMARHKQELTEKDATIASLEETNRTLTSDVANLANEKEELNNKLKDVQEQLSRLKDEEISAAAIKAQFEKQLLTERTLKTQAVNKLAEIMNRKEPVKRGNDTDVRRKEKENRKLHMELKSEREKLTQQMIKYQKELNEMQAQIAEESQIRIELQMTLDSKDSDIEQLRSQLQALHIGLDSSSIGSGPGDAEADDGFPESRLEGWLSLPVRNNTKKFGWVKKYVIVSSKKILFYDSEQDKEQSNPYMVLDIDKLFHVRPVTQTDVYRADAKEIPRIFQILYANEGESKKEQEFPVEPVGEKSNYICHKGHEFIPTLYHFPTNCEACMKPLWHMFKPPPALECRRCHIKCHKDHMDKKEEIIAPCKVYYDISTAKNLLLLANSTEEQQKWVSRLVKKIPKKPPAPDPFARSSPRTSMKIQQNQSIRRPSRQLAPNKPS

| SMILES | IC50 [nM] |
| --- | --- |
| COCC(=O)N1CCC2(CC1)CN(c1ccc(-c3cn[nH]c3)c(OC)n1)C(=O)N2Cc1cccc(F)c1C [Example 226, 1-(3-fluoro-2-methylbenzyl)-3-(6-methoxy-5-(1H-pyrazol-4-yl)pyridin-2-yl)-8-(2-methoxyacetyl)-1,3,8-triazaspiro[4.5]decan-2-one] | < 3 |
| CCc1nc(N2CC3(CCN(C(=O)OC)CC3)N(Cc3cccc(OC)c3)C2=O)ccc1-c1cn[nH]c1 [Example 105, methyl 3-(6-ethyl-5-(1H-pyrazol-4-yl)pyridin-2-yl)-1-(3-methoxybenzyl)-2-oxo-1,3,8-triazaspiro[4.5]decane-8-carboxylate] | < 3 |
| COc1nc(N2CC3(CCN(C(=O)CCN4CCCC4=O)CC3)N(Cc3cccc(F)c3C)C2=O)ccc1-c1cn[nH]c1 [Example 227, 1-(3-fluoro-2-methylbenzyl)-3-(6-methoxy-5-(1H-pyrazol-4-yl)pyridin-2-yl)-8-(3-(2-oxopyrrolidin-1-yl)propanoyl)-1,3,8-triazaspiro[4.5]decan-2-one] | < 3 |
| COc1cccc(NC2C(=O)N(c3ccc(-c4cn[nH]c4)cn3)CC23CCN(C(=O)CCn2cc(C)c4ccccc42)CC3)c1 (centres unmarked) [Example 256, 2-(5-(1H-pyrazol-4-yl)pyridin-2-yl)-4-((3-methoxy-phenyl)amino)-8-(3-(3-methyl-1H-indol-1-yl)propanoyl)-2,8-diazaspiro [4.5]decan-3-one] | 30 to 250 |
| COc1cccc(NC2C(=O)N(c3ccc(-c4cn[nH]c4)cc3)CC23CCN(CC(C)(C)O)CC3)c1 (centres unmarked) [Example 253, 2-(4-(1H-pyrazol-4-yl)phenyl)-8-(2-hydroxy-2-methylpropyl)-4-((3-methoxy-phenyl)amino)-2,8-diazaspiro [4.5]decan-3-one] | 250 to 3000 |
| COc1nc(N2CC3(CCN(C(C)=O)CC3)N(Cc3cccc(F)c3C)C2=O)ccc1-c1cn[nH]c1 [Example 86, 8-acetyl-1-(3-fluoro-2-methylbenzyl)-3-(6-methoxy-5-(1H-pyrazol-4-yl)pyridin-2-yl)-1,3,8-triazaspiro[4.5]decan-2-one] | < 3 |
| CCc1nc(N2CC3(CCN(C(=O)OC)CC3)N(Cc3cccc(F)c3C)C2=O)ccc1-c1cn[nH]c1 [Example 104, methyl 3-(6-ethyl-5-(1H-pyrazol-4-yl)pyridin-2-yl)-1-(3-fluoro-2-methylbenzyl)-2-oxo-1,3,8-triazaspiro[4.5]decane-8-carboxylate] | < 3 |
| COc1cccc(CN2C(=O)N(c3ccc(-c4cn[nH]c4)cc3)CC23CCN(C(=O)c2ccc4cc[nH]c4c2)CC3)c1 [Example 179, 3-(4-(1H-pyrazol-4-yl)phenyl)-8-(1H-indole-6-carbonyl)-1-(3-methoxybenzyl)-1,3,8-triazaspiro[4.5]decan-2-one] | 3 to 30 |
| COc1cccc(CN2C(=O)N(c3ccc(-c4cn[nH]c4)c(OC)n3)CC23CCN(C(=O)C(C)(C)O)CC3)c1 [Example 222, 8-(2-hydroxy-2-methylpropanoyl)-3-(6-methoxy-5-(1H-pyrazol-4-yl)pyridin-2-yl)-1-(3-methoxybenzyl)-1,3,8-triazaspiro[4.5]decan-2-one] | < 3 |
| COc1cccc(CN2C(=O)N(c3ccc(-c4cn[nH]c4)c(OC)n3)CC23CCN(CC(C)O)CC3)c1 (centres unmarked) [Example 147, 8-(2-hydroxypropyl)-3-(6-methoxy-5-(1H-pyrazol-4-yl)pyridin-2-yl)-1-(3-methoxybenzyl)-1,3,8-triazaspiro[4.5]decan-2-one] | < 3 |
| COc1cccc(NC2C(=O)N(c3ccc(-c4cn[nH]c4)cc3)CC23CN(CC(F)F)C3)c1 (centres unmarked) [Example 247, 6-(4-(1H-pyrazol-4-yl)phenyl)-2-(2,2-difluoroethyl)-8-((3-methoxy-phenyl)amino)-2,6-diazaspiro [3.4]octan-7-one] | 250 to 3000 |
| COc1cccc(CN2C(=O)N(c3ccc(-c4cn[nH]c4)c(OC)n3)CC23CCN(C(=O)C2COC2)CC3)c1 [Example 223, 3-(6-methoxy-5-(1H-pyrazol-4-yl)pyridin-2-yl)-1-(3-methoxybenzyl)-8-(oxetane-3-carbonyl)-1,3,8-triazaspiro[4.5]decan-2-one] | < 3 |
| COc1cccc(CN2C(=O)N(c3ccc(-c4cn[nH]c4)cn3)CC23CCN(CC(C)O)CC3)c1 (centres unmarked) [Example 160, 3-(5-(1H-pyrazol-4-yl)pyridin-2-yl)-8-(2-hydroxypropyl)-1-(3-methoxybenzyl)-1,3,8-triazaspiro[4.5]decan-2-one] | 3 to 30 |
| CCc1nc(N2CC3(CCN(CC(F)F)CC3)N(Cc3cccc(F)c3C)C2=O)ccc1-c1cn[nH]c1 [Example 130, 8-(2,2-difluoroethyl)-3-(6-ethyl-5-(1H-pyrazol-4-yl)pyridin-2-yl)-1-(3-fluoro-2-methylbenzyl)-1,3,8-triazaspiro[4.5]decan-2-one] | 3 to 30 |
| COc1cccc(NC2C(=O)N(c3ccc(-c4cn[nH]c4)cn3)CC23CCN(C(=O)CCN2CCCC2=O)CC3)c1 (centres unmarked) [Example 259, 2-(5-(1H-pyrazol-4-yl)pyridin-2-yl)-4-((3-methoxy-phenyl)amino)-8-(3-(2-oxo-pyrrolidin-1-yl)pro-panoyl)-2,8-diazaspiro [4.5]decan-3-one] | 250 to 3000 |
| COc1nc(N2CC3(CCN(C(=O)CO)CC3)N(Cc3cccc(F)c3C)C2=O)ccc1-c1cn[nH]c1 [Example 229, 1-(3-fluoro-2-methylbenzyl)-8-(2-hydroxyacetyl)-3-(6-methoxy-5-(1H-pyrazol-4-yl)pyridin-2-yl)-1,3,8-triazaspiro[4.5]decan-2-one] | < 3 |

Other lines, results leading:

| IC50 [nM] | SMILES |
| --- | --- |
| < 3 | CNC(=O)N1CCC2(CC1)CN(c1ccc(-c3cn[nH]c3)cc1)C(=O)N2Cc1cccc(OC)c1 [Example 91, 3-(4-(1H-pyrazol-4-yl)phenyl)-1-(3-methoxybenzyl)-N-methyl-2-oxo-1,3,8-triazaspiro[4.5]decane-8-carboxamide] |
| 30 to 250 | CN(C)C(=O)c1cccc(CN2C(=O)N(c3ccc(-c4cn[nH]c4)cc3)CC23CCOCC3)c1 [Example 42, 3-((3-(4-(1H-pyrazol-4-yl)phenyl)-2-oxo-8-oxa-1,3-diazaspiro[4.5]decan-1-yl)methyl)-N,N-dimethylbenzamide] |
| 30 to 250 | O=C1N(c2ccc(-c3cn[nH]c3)cc2)CC2(CCOCC2)N1Cc1cccc(OC(F)(F)F)c1 [Example 20, 3-(4-(1H-pyrazol-4-yl)phenyl)-1-(3-(trifluoromethoxy)benzyl)-8-oxa-1,3-diazaspiro[4.5]decan-2-one] |
| < 3 | COc1nc(N2CC3(CCN(C4COC4)CC3)N(Cc3cccc(F)c3C)C2=O)ccc1-c1cn[nH]c1 [Example 239, 1-(3-fluoro-2-methyl-benzyl)-3-(6-methoxy-5-(1H-pyrazol-4-yl)pyridin-2-yl)-8-(oxetan-3-yl)-1,3,8-triazaspiro [4.5]decan-2-one] |
| < 3 | CCCN1CCC2(CC1)CN(c1ccc(-c3cn[nH]c3)cc1)C(=O)N2Cc1cccc(OC)c1 [Example 116, 3-(4-(1H-pyrazol-4-yl)phenyl)-1-(3-methoxybenzyl)-8-propyl-1,3,8-triazaspiro[4.5]decan-2-one] |
| 3 to 30 | O=C1N(c2ccc(-c3cn[nH]c3)cc2)CC2(CC2)N1Cc1cccc(OCC2CC2)c1 [Example 7, 6-(4-(1H-pyrazol-4-yl)phenyl)-4-(3-(cycloproylmethoxy)benzyl)-4,6-diazaspiro[2.4]heptan-5-one] |
| < 3 | COc1cccc(CN2C(=O)N(c3ccc(-c4cn[nH]c4)cc3)CC23CCN(C(=O)OCC(C)C)CC3)c1 [Example 95, isobutyl 3-(4-(1H-pyrazol-4-yl)phenyl)-1-(3-methoxybenzyl)-2-oxo-1,3,8-triazaspiro[4.5]decane-8-carboxylate] |
| < 3 | Cc1c(F)cccc1CN1C(=O)N(c2ccc(-c3cn[nH]c3)cc2)CC12CCOCC2 [Example 25, 3-(4-(1H-pyrazol-4-yl)phenyl)-1-(3-fluoro-2-methylbenzyl)-8-oxa-1,3-diazaspiro[4.5]decan-2-one] |
| < 3 | COc1cccc(CN2C(=O)N(c3ccc(-c4cn[nH]c4)cc3)CC23CCN(C(=O)CO)CC3)c1 [Example 176, 3-(4-(1H-pyrazol-4-yl)phenyl)-8-(2-hydroxyacetyl)-1-(3-methoxybenzyl)-1,3,8-triazaspiro[4.5]decan-2-one] |
| < 3 | COc1cc(CN2C(=O)N(c3ccc(-c4cn[nH]c4)cc3)CC23CCNCC3)ccc1F [Example 59, 3-(4-(1H-pyrazol-4-yl)phenyl)-1-(4-fluoro-3-methoxybenzyl)-1,3,8-triazaspiro[4.5]decan-2-one] |
| < 3 | COc1cccc(CN2C(=O)N(c3ccc(-c4cn[nH]c4)cc3)CC23CCNCC3)c1 [Example 57, 3-(4-(1H-pyrazol-4-yl)phenyl)-1-(3-methoxybenzyl)-1,3,8-triazaspiro[4.5]decan-2-one] |
| 30 to 250 | COc1cccc(CN2C(=O)N(c3ccc(-c4cn[nH]c4)cc3)CC23CCOCC3)c1F [Example 29, 3-(4-(1H-pyrazol-4-yl)phenyl)-1-(2-fluoro-3-methoxybenzyl)-8-oxa-1,3-diazaspiro[4.5]decan-2-one] |
| < 3 | COc1cccc(CN2C(=O)N(c3ccc(-c4cn[nH]c4)cc3)CC23CCN(C)CC3)c1 [Example 113, 3-(4-(1H-pyrazol-4-yl)phenyl)-1-(3-methoxybenzyl)-8-methyl-1,3,8-triazaspiro[4.5]decan-2-one] |
| < 3 | COc1cccc(CN2C(=O)N(c3ccc(-c4cn[nH]c4)cc3)CC23CCN(C(=O)C2CCCC2)CC3)c1 [Example 174, 3-(4-(1H-pyrazol-4-yl)phenyl)-8-(cyclopentanecarbonyl)-1-(3-methoxybenzyl)-1,3,8-triazaspiro[4.5]decan-2-one] |
| 30 to 250 | NC(=O)c1cccc(CN2C(=O)N(c3ccc(-c4cn[nH]c4)cc3)CC23CCOCC3)c1 [Example 32, 3-((3-(4-(1H-pyrazol-4-yl)phenyl)-2-oxo-8-oxa-1,3-diazaspiro[4.5]decan-1-yl)methyl)benzamide] |
| 3 to 30 | COc1cccc(CN2C(=O)N(c3ccc(-c4cn[nH]c4)cn3)CC23CCNCC3)c1 [Example 73, 3-(5-(1H-pyrazol-4-yl)pyridin-2-yl)-1-(3-methoxybenzyl)-1,3,8-triazaspiro[4.5]decan-2-one] |
